Data: PMC10460728 (Journal of Pharmacokinetics and Pharmacodynamics, 2023)
“And” between values parts separate entries of the source, which are not always exact repeats. Equal values may be shown once. Read-outs that look alike come from different tables or passages of the source.

What was measured:
[1] = tested on: CYP2B6; experiment: CYP2B6 mRNA induction in cultured human hepatocytes
[2] = tested on: CYP3A4
[3] = PBPK models of enzalutamide and M2 (Simcyp)
Excerpt: Many of the physicochemical properties and plasma protein binding data were obtained internally and also referenced from FDA documents, which are available from the FDA website. […] Accordingly, the solution formulation option in the Simcyp model was used.
The PBPK models of CYP2C8 inhibitor (gemfibrozil), CYP3A4 substrate (midazolam), and P-gp substrate (digoxin) were used from the Simcyp software library with models that were verified for their intended purpose.

[4] = tested on: CYP1A2; experiment: CYP1A2 mRNA induction in cultured human hepatocytes
[5] = plasma; ref FDA CP review; cited from earlier work
[6] = tested on: CYP2C19; experiment: CYP2C19 mRNA induction in cultured human hepatocytes
[7] = molecular target: T1, OAT3 (Homo sapiens, UniProt Q8TCC7); experiment: In vitro OAT3 inhibition (internal data); assay type: cell-based
T1 sequence (Q8TCC7 1-542): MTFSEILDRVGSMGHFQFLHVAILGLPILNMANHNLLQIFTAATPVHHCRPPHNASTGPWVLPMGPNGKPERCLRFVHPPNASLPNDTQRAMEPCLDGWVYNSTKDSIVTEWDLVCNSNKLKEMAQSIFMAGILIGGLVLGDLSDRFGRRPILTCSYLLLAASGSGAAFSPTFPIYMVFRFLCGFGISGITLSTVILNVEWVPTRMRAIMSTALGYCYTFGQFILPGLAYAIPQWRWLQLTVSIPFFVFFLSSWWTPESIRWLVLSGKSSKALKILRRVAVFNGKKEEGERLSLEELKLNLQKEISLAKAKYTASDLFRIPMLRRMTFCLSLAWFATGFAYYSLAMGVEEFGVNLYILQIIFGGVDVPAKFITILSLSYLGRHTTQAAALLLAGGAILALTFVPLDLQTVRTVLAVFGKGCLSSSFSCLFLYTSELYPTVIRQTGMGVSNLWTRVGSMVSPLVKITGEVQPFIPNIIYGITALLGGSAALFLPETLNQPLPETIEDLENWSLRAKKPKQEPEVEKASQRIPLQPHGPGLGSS

[8] = tested on: P-gp; experiment: P-gp mRNA induction in cultured human hepatocytes; assay type: cell-based
[9] = tested on: CYP2C8; experiment: CYP2C8 mRNA induction in cultured human hepatocytes
[10] = tested on: CYP2C9; experiment: CYP2C9 mRNA induction in cultured human hepatocytes
[11] = molecular target: P-gp (human MDR1) (Homo sapiens, UniProt P08183); experiment: In vitro P-gp inhibition: 3H-digoxin permeation across control and MDR1-expressing LLC-PK1 cell monolayers
Experimental: MDR1-expressing cells (porcine kidney epithelial LLC-PK1 cells transfected with human MDR1 cDNA) was used. The MDR1-expressing cells were seeded at a density of 4 × 10^4 cells/insert in plates and were incubated in a CO2 incubator (37 °C, CO2: 5%) for 7 to 9 days to prepare cell monolayers. […] After incubation for 4 h at 37 °C, a 70-μL aliquot of the incubation solutions was collected as the analytical sample from the opposite compartment of that spiked with test solutions (receiver compartment). The collected samples were immediately combined with 10 mL of scintillator, and the radioactivity was counted using the LSC. Permeability coefficient (Papp) of ^3H-digoxin was calculated using the following equation: Pappcm/sec=[dQ/dt]/A/C0 where dQ/dt is the transport rate (dpm/sec); A is the membrane area (cm^2); C0 is the initial concentration (dpm/mL). The ratio of permeability coefficient (Papp ratio) was calculated from the basal to apical Papp and apical to basal Papp according to the following equation: Pappratio=BasaltoapicalPapp/ApicaltobasalPapp
Furthermore, the ratios of the Papp ratios in MDR1-expressing cells to the Papp ratios in control cells were calculated as corrected Papp ratio according to the following equation: CorrectedPappratio=PappratiooftheMDR1expressingcells/Pappratioofthecontrolcells
The % of control was calculated from the corrected Papp ratio according to the following equation: \% \,of\,control=CorrectedPappratio\,in\,the\,absence\,or\,presence\,of\,inhibitors/CorrectedPappratio\,in\,the\,absence\,of\,inhibitors×100

[12] = mean
[13] = tested on: CYP3A4; settings: cited from earlier work
[14] = tested on: CYP3A; settings: multiple oral 600 mg rifampicin; cited from earlier work
[15] = tested on: intestinal P-gp; settings: multiple-dose 600 mg rifampicin, Western blot; cited from earlier work
[16] = 100 µmol/L (enzalutamide, M2: two lots of hepatocyte)
[17] = 3H-digoxin 1 µmol/L, additive 0.1 µmol/L
[18] = 3H-digoxin 1 µmol/L, additive 0.3 µmol/L
[19] = 3H-digoxin 1 µmol/L, additive 1 µmol/L
[20] = 3H-digoxin 1 µmol/L, additive 3 µmol/L
[21] = 3H-digoxin 1 µmol/L, additive 10 µmol/L
[22] = 3H-digoxin 1 µmol/L, additive 25 µmol/L
[23] = once-daily oral 160 mg enzalutamide for 49 days
[24] = single oral 160 mg enzalutamide
[25] = multiple 160 mg doses of enzalutamide, mean (SD)
[26] = with/without enzalutamide 160 mg multiple doses, geometric mean ratio (90% CI)

Sequence of P-gp (human MDR1) (P08183 whole entry): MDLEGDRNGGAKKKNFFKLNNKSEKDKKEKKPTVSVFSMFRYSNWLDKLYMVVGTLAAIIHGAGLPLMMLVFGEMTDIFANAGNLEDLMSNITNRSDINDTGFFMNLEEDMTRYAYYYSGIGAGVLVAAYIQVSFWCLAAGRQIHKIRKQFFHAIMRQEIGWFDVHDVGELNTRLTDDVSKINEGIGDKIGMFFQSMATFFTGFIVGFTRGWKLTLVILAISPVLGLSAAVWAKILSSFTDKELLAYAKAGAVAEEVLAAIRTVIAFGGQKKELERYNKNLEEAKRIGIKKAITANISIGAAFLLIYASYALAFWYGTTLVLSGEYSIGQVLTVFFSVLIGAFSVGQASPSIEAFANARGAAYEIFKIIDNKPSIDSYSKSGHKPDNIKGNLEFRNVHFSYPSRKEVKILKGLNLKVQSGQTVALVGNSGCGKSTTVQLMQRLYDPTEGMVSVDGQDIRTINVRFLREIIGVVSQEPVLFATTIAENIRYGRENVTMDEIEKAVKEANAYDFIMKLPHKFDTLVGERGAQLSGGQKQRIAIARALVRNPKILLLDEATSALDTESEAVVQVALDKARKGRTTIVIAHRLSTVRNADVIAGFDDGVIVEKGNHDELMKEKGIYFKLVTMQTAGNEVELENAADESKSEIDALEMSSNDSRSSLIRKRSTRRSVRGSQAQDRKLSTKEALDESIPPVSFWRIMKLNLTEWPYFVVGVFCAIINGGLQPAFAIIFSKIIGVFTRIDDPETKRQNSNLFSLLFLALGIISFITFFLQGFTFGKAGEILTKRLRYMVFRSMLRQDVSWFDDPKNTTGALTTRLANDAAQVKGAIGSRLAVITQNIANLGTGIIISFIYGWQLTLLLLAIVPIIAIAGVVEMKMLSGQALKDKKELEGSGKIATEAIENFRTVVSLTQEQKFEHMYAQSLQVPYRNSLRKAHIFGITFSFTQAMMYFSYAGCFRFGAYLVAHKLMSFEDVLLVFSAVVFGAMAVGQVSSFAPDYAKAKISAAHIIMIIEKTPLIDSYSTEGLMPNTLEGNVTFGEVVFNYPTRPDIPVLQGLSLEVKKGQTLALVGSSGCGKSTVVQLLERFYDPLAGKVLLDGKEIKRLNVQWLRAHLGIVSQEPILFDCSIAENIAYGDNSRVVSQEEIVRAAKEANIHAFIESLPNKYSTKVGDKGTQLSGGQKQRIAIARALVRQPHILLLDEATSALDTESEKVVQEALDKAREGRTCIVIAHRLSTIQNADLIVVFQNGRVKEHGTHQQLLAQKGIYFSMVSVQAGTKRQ

Compound: CC1(C)C(=O)N(c2ccc(C#N)c(C(F)(F)F)c2)C(=S)N1c1ccc(C(N)=O)c(F)c1 [M2, N-desmethyl enzalutamide]
- CLint,HLM ([3]; PBPK model parameter, see text): 1.399 μL/min/mg protein
- CYP3A4 contribution to M2 elimination ([3]; set to recover M2 exposure after multiple doses of enzalutamide): 9%
- fu [5]: 0.0467
- Ki [7]: 11500 nM
- IC50 ([11]; read-out: IC50 (P-gp-mediated 3H-digoxin transport), 3H-digoxin 1 µmol/L, MDR1-expressing LLC-PK1 cells): 1090 nM
- Ki ([11]; read-out: Ki on P-gp, IC50 regarded as Ki, PBPK model input): 1090 nM
- AUCtau, observed [12, 23]: 278.3 µg·h/mL
- Cmax, observed [12, 23]: 12680 ng/mL
- Cmin, observed [12, 23]: 10570 ng/mL
- MPR (MWC), observed [12, 23]: 0.913
- AUCinf, observed [12, 24]: 395 µg·h/mL
- Cmax, observed [12, 24]: 887 ng/mL
- t1/2, observed [12, 24]: 179 h

Compound: Cc1ncc2n1-c1ccc(Cl)cc1C(c1ccccc1F)=NC2 [Midazolam, midazolam]
- AUC without enzalutamide, observed ([13]; mean (SD)): 32.0 (12.8) ng·h/mL
- Cmax without enzalutamide, observed ([13]; mean (SD)): 9.98 (3.17) ng/mL
- AUC with enzalutamide, observed [13, 25]: 4.22 (0.784) ng·h/mL
- Cmax with enzalutamide, observed [13, 25]: 2.29 (0.868) ng/mL
- AUC ratio, observed [13, 26]: 0.14 (0.12–0.17)
- Cmax ratio, observed [13, 26]: 0.23 (0.20–0.27)
- Decrease in midazolam AUC by rifampicin [14]: more than 90%
- Midazolam AUC ratio with rifampicin [14]: less than 0.1

Compound: CCC1(c2ccccc2)C(=O)NC(=O)NC1=O [Phenobarbital, phenobarbital, reference compound]
- Fold increase CYP2B6 mRNA ([1]; 750 µmol/L): 6.90 ± 3.66 fold
- Fold increase P-gp mRNA ([8]; 750 µmol/L): 2.61 ± 0.59 fold

Compound: CO[C@H]1/C=C/O[C@@]2(C)Oc3c(C)c(O)c4c(O)c(c(/C=N/N5CCN(C)CC5)c(O)c4c3C2=O)NC(=O)/C(C)=C\C=C\[C@H](C)[C@H](O)[C@@H](C)[C@@H](O)[C@@H](C)[C@H](OC(C)=O)[C@@H]1C [Rifampicin, rifampicin]
- Increase in intestinal P-gp expression [15]: 3.5 fold
